SMILES strings stand for the structures.

This passage reports IC50 results from paper PMC4189421, “Induction of Oligodendrocyte Differentiation and In Vitro Myelination by Inhibition of Rho-Associated Kinase” (ASN NEURO, 2014).

The assay concerns mouse neurosphere-derived oligodendrocyte precursor cells (Nph-OPCs). As to the kind of experiment: Morphology-based OPC differentiation assay (branches, outgrowth; high-content imaging). It counts as cell-based. The following applies: Mus musculus, Oligodendrocyte precursor cell, 72 h, read-out: IC50, generation of branches in OPC differentiation assay. On the procedure: Neurospheres (Nph) were prepared from embryos at 14.5 days of gestation obtained from timed pregnant females of C57/Bl6 mice, as previously described ([Kornblum, Yanni, Easterday, & Seroogy, 2000]; [Pedraza, Monk, Lei, Hao, & Macklin, 2008]). In brief, after separation of meninges and cerebellum, cerebrum tissue was mechanically triturated with a 1-ml micropipette until total tissue dissociation was achieved, filtered through a 70 -µm cell strainer (Fisher Scientific, Pittsburgh, PA), and plated in 25-cm^2 plastic culture flasks (2 brains/flask). Nph proliferation media (NPM) consisted of Dulbecco’s Modified Eagle Medium (DMEM)/F12, B27 neuronal supplement (Gibco, Baltimore, MD) and 10 ng/ml […] (EGF; Sigma, St. Louis, MO). After 48 to 72 hr, floating Nphs were passaged at a 1 : 1 ratio into 75-cm^2 culture flasks. After a further 48 to 72 hr, they were passaged into 150-cm^2 flasks. Subsequent passages were performed every 3 to 4 days at a ratio of 1 : 2 or 1 : 3 in the same media, and Nph were used to generate OPCs for no more than 12 passages.
OPCs were generated by chemical disaggregation of Nph with a mouse neural progenitor dissociation kit following the manufacturer instructions (NeuroCult, StemCell Technologies, AB, Canada). The single-cell suspension was then filtered through a 40 -µm cell strainer and plated on poly-D-lysine (PDL)-coated plates. […]
To determine the effects of ROCK inhibition on OPCs, we developed a high-content image morphological analysis of OPC differentiation using mouse embryonic neural progenitor-derived OPCs (Nph-OPCs). […] Four images per well were analyzed using a neurite outgrowth module (Molecular Devices, Sunnyvale, CA). We quantified the number of branches and total outgrowth per cell (Figure 1). […] Additionally, nuclear staining by Hoechst allowed the accurate association of branches and processes to their corresponding cell bodies and permitted quantification of total cell numbers in each well.

As for `C[C@@H](N)[C@H]1CC[C@H](C(=O)Nc2ccncc2)CC1.Cl.Cl` [Y0503, trans-4-[(1 R)-1-aminoethyl]-N-4-pyridinylcyclohexanecarboxamide dihydrochloride], the IC50 worked out at 2700 nM.
